“Also recorded” adds a separate entry of the source.
Experiments:
[1] = molecular target: T1, rat Mas receptor (Rattus norvegicus, UniProt P12526); test: HTRF IP1 assay, HEK293 cells expressing rat Mas receptor; assay type: cell-based
T1 construct: expressed in transfected cells; host or cells: HEK293 (ATCC CRL-1573)
T1 sequence (P12526 1-324): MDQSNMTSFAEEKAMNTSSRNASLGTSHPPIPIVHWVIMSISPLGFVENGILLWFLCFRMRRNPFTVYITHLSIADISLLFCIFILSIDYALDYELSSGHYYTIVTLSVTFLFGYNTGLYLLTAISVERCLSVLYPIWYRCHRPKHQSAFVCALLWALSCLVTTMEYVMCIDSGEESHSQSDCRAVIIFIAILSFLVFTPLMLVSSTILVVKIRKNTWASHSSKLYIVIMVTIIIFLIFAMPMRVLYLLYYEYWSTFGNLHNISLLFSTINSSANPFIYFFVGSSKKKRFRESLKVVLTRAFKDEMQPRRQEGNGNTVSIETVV
Description: (§1) Human and rat Mas receptors were either transiently or stably expressed in HEK293 cells. For transient transfections, human or rat Mas in pHM6 vector were transfected into HEK293 cells using Lipofectamine® (Invitrogen #18324-012). HEK293 cells transfected with empty pHM6 vector were used as a control. For generation of stable cell lines, cDNA expression plasmids encoding human or rat Mas genes and the neo^r gene were transfected into HEK293 cells (ATCC# CRL-1573) using Lipofectamine® (Invitrogen) according to the manufacturer's instructions. Stable receptor expressing pools were then generated over 3 weeks by standard techniques in the presence of 500 μg/mL Geneticin® (Gibco). Individual receptor stable pools were dilution cloned using standard techniques and clones were comparatively evaluated in inositol phosphate accumulation assays. Preferred clones were banked and cultured as needed. HEK293 cells were used as controls. The 384 well IP-One HTRF® Assay (Cisbio #62P1APEJ) was performed as described by the manufacturer's protocol. Cells were plated in at 100,000 cells per well in 15 μL DMEM (Gibco #11960) and incubated in a CO2 incubator at 37° C. for 2 h. Five μL of compounds diluted in 2× stimulation buffer plus 0.4% BSA (Sigma (#A3059) were added to each well and serial diluted IP1 standards (Cisbio #62IP1CDA) were also added to corresponding wells at this step. After the cells were incubated for 4 h in a CO2 incubator at 37° C., d2-labeled IP1 and cryptate-labeled anti-IP1 monoclonal antibody diluted in lysis buffer were added sequentially in 10 μL per well and the assay plates were kept in the dark at room temperature overnight. Ratiometric measurements of fluorescence emission at 665 nm and 620 nm were obtained using a Pherastar fluorometer (BMG Labtech). IP1 levels in each well were calculated according to the standard curves on each plate. IC50 values were obtained by fitting data to a nonlinear curve-fitting program (GraphPad Software, Inc., La Jolla Calif.).

[2] = molecular target: T2, human Mas receptor (Homo sapiens, UniProt P04201); test: HTRF IP1 assay, HEK293 cells expressing human Mas receptor; assay type: cell-based
T2 construct: expressed in transfected cells; host or cells: HEK293 (ATCC CRL-1573)
T2 sequence (P04201 1-325): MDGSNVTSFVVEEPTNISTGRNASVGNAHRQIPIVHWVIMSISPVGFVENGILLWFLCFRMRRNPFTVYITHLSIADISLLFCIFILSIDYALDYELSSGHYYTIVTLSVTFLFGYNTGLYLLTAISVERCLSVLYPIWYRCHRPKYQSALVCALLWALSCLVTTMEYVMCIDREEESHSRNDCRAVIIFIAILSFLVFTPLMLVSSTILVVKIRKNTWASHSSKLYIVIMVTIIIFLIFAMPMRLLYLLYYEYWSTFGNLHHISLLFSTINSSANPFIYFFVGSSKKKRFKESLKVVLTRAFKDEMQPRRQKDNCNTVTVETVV
Description: as §1

[3] = test system: control HEK293 cells; test: HTRF IP1 assay in control HEK293 cells; assay type: cell-based; conditions: IP assay
Description: Human and rat Mas receptors were either transiently or stably expressed in HEK293 cells. For transient transfections, human or rat Mas in pHM6 vector were transfected into HEK293 cells using Lipofectamine® (Invitrogen #18324-012). HEK293 cells transfected with empty pHM6 vector were used as a control. For generation of stable cell lines, cDNA expression plasmids encoding human or rat Mas genes and the neo^r gene were transfected into HEK293 cells (ATCC# CRL-1573) using Lipofectamine® (Invitrogen) according to the manufacturer's instructions. Stable receptor expressing pools were then generated over 3 weeks by standard techniques in the presence of 500 μg/mL Geneticin® (Gibco). Individual receptor stable pools were dilution cloned using standard techniques and clones were comparatively evaluated in inositol phosphate accumulation assays. Preferred clones were banked and cultured as needed. HEK293 cells were used as controls. The 384 well IP-One HTRF® Assay (Cisbio #62P1APEJ) was performed as described by the manufacturer's protocol. Cells were plated in at 100,000 cells per well in 15 μL DMEM (Gibco #11960) and incubated in a CO2 incubator at 37° C. for 2 h. […] IP1 levels in each well were calculated according to the standard curves on each plate. […]

[4] = test system: Male Sprague-Dawley rats; test: Coronary artery ligation model, LV area at risk and infarct size (Example 5.6); assay type: in vivo, rat; conditions: 10 mg/kg i.v. bolus 10 min before ligation or 3 min before reperfusion; 30 min ischemia, 2 h reperfusion
[5] = test system: isolated perfused rat hearts; test: Ex vivo coronary flow, Langendorff perfused isolated rat hearts
Description: Coronary flow was measured in male Mas^−/− and Mas^+/+ mice, and in male Sprague-Dawley rats using Langendorff perfused isolated hearts. Freshly isolated hearts were placed on a Langendorff apparatus (Harvard Apparatus) and perfused at a constant pressure of 80 mmHg with a modified Krebs-Henseleit buffer solution (Sigma K3753) and aerated with 95% oxygen and 5% carbon dioxide, pH 7.35-7.4. The temperature was maintained at 37° C. by surrounding the heart with a water-heated glassware chamber. Coronary flow was measured using a flow measurement system (Harvard Apparatus) which included the transit time flow meter and a flow probe built into an adaptor block located at the perfusate inflow port. Data were recorded continuously using an ISOHEART data acquisition system (Harvard Apparatus). After a 20-min equilibration period, Mas compounds were added to the perfusion buffer reservoir at the desired concentration (agonist AR234960 at 1 μM, or inverse agonist AR244555 at 5 μM) and coronary flow was recorded for 10 min
To determine the role of the Mas-Gq-PLC pathway in regulating coronary flow, the Mas inverse agonist AR244555 (5 μM) or the PLC inhibitor U-73122 (0.5 μM) was added to the perfusion buffer for 10 min and then the agonist AR234960 (1 μM) was added to the perfusion buffer. Coronary flow was recorded for another 10 min Changes in coronary flow induced by AR234960 were calculated as percentage of the coronary flow at 10 min following AR234960 treatment, relative to the coronary flow measured immediately prior to addition of AR234960. This protocol allowed for measurement of agonist mediated vasoconstrictor activity, and accounted for changes in baseline coronary flow due to inverse agonist treatment alone.
To determine whether Mas agonist-induced changes in coronary flow were endothelium-dependent, the responses in Langendorff perfused hearts were measured after chemical removal of endothelium with sodium deoxycholate. After a 20-min equilibration period, sodium deoxycholate was added to the perfusion buffer at 0.2 mg/mL for 3 min and then washed out for 10 min Mas compounds were added and coronary flow was recorded for 10 min Adenosine (1 μM), a coronary vasodilator that targets the endothelium, was used as a control to verify effective removal of endothelium.

[6] = test system: isolated perfused rat hearts; test: Global ischemia-reperfusion in Langendorff perfused rat hearts (coronary flow, arrhythmias)
Description: For ischemia-reperfusion experiments, Langendorff perfused rat hearts were equilibrated for 20 min and then baseline coronary flow was recorded for 10 min Thereafter, all hearts were subjected to 30 min of global ischemia by stopping perfusate flow, followed by 30 min of reperfusion with either vehicle (0.01% DMSO), Mas agonist AR234960 (1 μM) or Mas inverse agonist AR244555 (5 μM) added to the perfusion buffer. Electrocardiography was also continuously recorded during the observation period through electrodes attached directly to the surface of the ventricles to detect cardiac arrhythmias during reperfusion.

[7] = test system: Male Sprague Dawley rats; test: Carrageenan-induced inflammatory paw swelling model; assay type: in vivo, rat; conditions: i.p. 30 minutes prior to λ-carrageenan; AR305352 1, 3 and 10 mg/kg; dexamethasone 2 mg/kg; 1, 2, 3, 6 and 24 hours
Description: In a blinded and randomized fashion, rats were intraperitoneally dosed with a Mas receptor inverse agonist (AR305352, N-(4-chloro-2-(4-(3,3,3-trifluoropropyl)piperazin-1-yl)phenyl)-2,6-difluorobenzamide, see Zhang, T., et. al., Am J Physiol Heart Circ Physiol 302:H299-H311, (2012)) at 1, 3 and 10 mg/kg, 20% HPCD or 2 mg/kg of dexamethasone, 30 minutes prior to injection of 100 μl of saline or 100 μg of λ-carrageenan into the left or right foot pad of anesthetized animals. The difference in footpad width was measured using a caliper at 1, 2, 3, 6 and 24 hours post-injection.

[8] = molecular target: Mas receptor; conditions: Dong, et al., Cell 106:619-632 (2001); cited from earlier work

C=CCCN1CCC2(CC1)CN(C(=O)c1c(F)cccc1F)c1ccc(Cl)cc12 [AR244555, 1′-(but-3-enyl)-1,2-dihydro-5-chloro-1-(2,6-difluoro-benzoyl)-spiro[3H-indole-3,4′-piperidine]]
IC50 ([1]; IP assay, HEK293 cells stably expressing rat Mas, 4 h, means ± SEM, read-out: Rat IC50): 348 ± 67 nM | ligand activity in IP assay, rat Mas ([1]; Table C, line under Rat IC50): (inverse agonist) | IC50 ([2]; IP assay, HEK293 cells stably expressing human Mas, 4 h, means ± SEM, read-out: Human IC50): 186 ± 11 nM | ligand activity in IP assay, human Mas ([2]; Table C, line under Human IC50): (inverse agonist) | effects in control HEK293 cells [3]: There were detected effects | infarct size (percentage of the area at risk) vs vehicle [4]: reduced infarct size by about half; also recorded: cardioprotective | coronary flow in isolated perfused rat hearts ([5]; AR234960 1 μM, AR244555 5 μM, 10 min): modest but significant increase; also recorded: significantly increased | decrease in coronary flow induced by AR234960 (1 μM) after pretreatment ([5]; pretreatment 10 min: AR244555 5 μM or U-73122 0.5 μM): prevented the decrease | arrhythmias during reperfusion ([6]; 5 μM, six hearts): no arrhythmias were observed | coronary flow during reperfusion compared to vehicle treated hearts ([6]; 30 min global ischemia, 30 min reperfusion, AR234960 1 μM, AR244555 5 μM in perfusate during reperfusion): significantly elevated coronary flow

O=C(Nc1ccc(Cl)cc1N1CCN(CCC(F)(F)F)CC1)c1c(F)cccc1F [AR305352, N-(4-chloro-2-(4-(3,3,3-trifluoropropyl)piperazin-1-yl)phenyl)-2,6-difluorobenzamide]
foot-pad inflammation / paw swelling [7]: suppress foot-pad inflammation in a dose-dependent manner

NPFF
EC50 [8]: ~400 nM
